Assay results taken from US20180177725A1, “CELL MEMBRANE-FORMED NANOSCALE VESICLES AND METHODS OF USING THEREOF” (WASHINGTON STATE UNIVERSITY, priority 2015, published 2018).

System: LPS-induced acute lung inflammation
Test: Mouse acute lung inflammatory (ALI) model, LPS-induced
Format: in vivo
Details: TPCA-1 0.33 mg/kg i.v.
Protocol: Mouse acute lung inflammatory (ALI) model: CD1 male mice were utilized. ALI was induced by intracheal spray of LPS (10 mg/kg) using a Model ICA-IC-M MicroSprayer Aerosolizer (Pen-Century). Approximately 3 hours after LPS was challenged, mice were intravenously injected with HBSS, free drug (TPCA-1), TPCA-1 loaded erythrocyte vesicles and TPCA-1 loaded HL 60 vesicles at two doses of 0.33 and 1 mg/ kg.
Bronchoalveolar lavage fluid collection and cell count: At 13 hours post-LPS administration, mice were anesthetized with an i.p. injection of ketamine and xylazine mixture. The trachea was cannulated, and 1 ml HBSS was infused intratracheally and withdrawn to obtain lavage fluid. This procedure was repeated twice. […] The total cell number was determined with a hemocytometer. […] The percentages of neutrophils were determined after counting 200 cells in randomly selected fields.
Cytokine generation: Cytokine levels in the BAL were determined using commercial ELISA kits for TNF-α and IL-6 (Biolegend, San Diego, Calif.) according to the manufacturer's instructions. […]
Measurement of lung vascular permeability: The permeability was evaluated via the larvage protein content change. The total protein concentrations were determined using a BCA protein assay kit (Thermo scientific, Rockford, Ill.).

SMILES: NC(=O)Nc1sc(-c2ccc(F)cc2)cc1C(N)=O [TPCA-1, 2-[(Aminocarbonyl)amino]-5-(4-fluorophenyl)-3-thiophenecarboxamide]
- therapeutic benefit on neutrophil infiltration at low dose: rarely showed this benefit
